Several values for one entry are separate records, joined by “and”; a condition that tells them apart may be missing. Identical values can stand only once.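 Tested at 5 concentrations; 48 h exposure; 96-well plates; endpoints linearly interpolated, else capped at highest concentration. GI50 = concentration required for 50% inhibition of growth. The concentration for full growth arrest is given as TGI.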
Tests used:
Test in all cases: growth of human tumour cells (NCI), 48 h
[1] = test system: 786-0 renal
[2] = test system: COLO 205 colon
[3] = test system: HCT-116 colon
[4] = test system: HS 578T breast
[5] = test system: MCF7 breast
[6] = test system: MDA-N
[7] = test system: NCI/ADR-RES ovarian
[8] = test system: OVCAR-5 ovarian
[9] = test system: OVCAR-8 ovarian
[10] = test system: SF-539 CNS
[11] = test system: SK-MEL-2 melanoma
[12] = test system: SK-MEL-28 melanoma
[13] = test system: SK-OV-3 ovarian
[14] = test system: SR leukemia
[15] = test system: UACC-257 melanoma
[16] = test system: RXF 393 renal

`CCSC1=N/C(=C\c2ccco2)C(Cl)=N1` was tested, and the TGI [1] was > 100 µM, the TGI [2] was > 100 µM and the TGI [3] was > 100 µM. For the same molecule, the TGI [4] was > 100 µM, the TGI [5] was > 100 µM and the TGI [6] was > 100 µM. For the same molecule, the TGI [7] was > 100 µM, the TGI [8] was > 100 µM and the TGI [9] was > 100 µM. For the same molecule, the TGI [10] was > 100 µM, the TGI [11] was > 100 µM and the TGI [12] was > 100 µM. The TGI [13] was > 100 µM, the TGI [14] was > 100 µM and the TGI [15] was > 100 µM.

`COc1ccc(C2=C(N)c3c(OC)cccc3C2=O)cc1` was tested, and the TGI [1] was > 100 µM, the TGI [2] was > 100 µM and the TGI [3] was > 100 µM. For the same molecule, the TGI [4] was > 100 µM, the TGI [5] was > 100 µM and the TGI [6] was > 100 µM. For the same molecule, the TGI [7] was > 100 µM, the TGI [8] was > 100 µM and the TGI [9] was > 100 µM. The TGI [16] was 31.5 µM, the TGI [10] was 41.3 µM and the TGI [11] was > 100 µM. For the same molecule, the TGI [12] was > 100 µM, the TGI [13] was > 100 µM and the TGI [14] was > 100 µM.

With `CSC1=N/C(=C\c2ccco2)C(=O)N1CN1CCCCC1` the TGI [1] was > 100 µM, the TGI [2] was > 100 µM and the TGI [3] was > 100 µM. The TGI [4] was > 100 µM, the TGI [5] was > 100 µM and the TGI [6] was > 100 µM. The TGI [7] was > 100 µM, the TGI [8] was > 100 µM and the TGI [9] was > 100 µM. For the same molecule, the TGI [11] was > 100 µM, the TGI [12] was > 100 µM and the TGI [13] was > 100 µM. The TGI [14] was > 100 µM.

`CCCCCCCCC/C=C1\CC(CO)(COC(=O)C2CCCCC2)OC1=O` (centres undefined) was tested, and the TGI [1] was 32.1 µM, the TGI [2] was 30.9 µM and the TGI [3] was 44.5 µM. The TGI [4] was 41 µM, the TGI [5] was 43.9 µM and the TGI [6] was 38.8 µM. For the same molecule, the TGI [7] was 38.1 µM, the TGI [8] was 38 µM and the TGI [9] was 29.2 µM. The TGI [16] was 38.7 µM, the TGI [11] was 43.1 µM and the TGI [12] was 30.5 µM. The TGI [13] was 70.8 µM, the TGI [14] was > 100 µM and the TGI [15] was 87.4 µM.

With `N#Cc1sc2c(c1OC(=O)c1cccs1)c(=O)n(-c1ccccc1)c(=S)n2-c1ccccc1` the TGI [1] was 90.6 µM, the TGI [2] was 42.5 µM and the TGI [3] was 34.2 µM. It also gave a TGI [4] of 43.6 µM, a TGI [5] of 49.7 µM and a TGI [6] of 68.5 µM. It also gave a TGI [7] of 50.1 µM, a TGI [9] of 81.6 µM and a TGI [16] of 31.9 µM. The TGI [10] was 49.6 µM, the TGI [11] was 51 µM and the TGI [12] was 61.6 µM. The TGI [13] was > 100 µM, the TGI [14] was 71.4 µM and the TGI [15] was > 100 µM.

For `COC(=O)C1=Cc2cc(OC)c(O)cc2[C@@H](c2ccc(O)c(OC)c2)[C@@H]1C(=O)OC`, the TGI [1] was > 100 µM, the TGI [2] was > 100 µM and the TGI [3] was > 100 µM. For the same molecule, the TGI [4] was > 100 µM, the TGI [5] was > 100 µM and the TGI [6] was > 100 µM. For the same molecule, the TGI [7] was > 100 µM, the TGI [8] was > 100 µM and the TGI [9] was > 100 µM. For the same molecule, the TGI [16] was > 100 µM, the TGI [10] was > 100 µM and the TGI [12] was > 100 µM. For the same molecule, the TGI [14] was > 100 µM and the TGI [15] was > 100 µM.

For `CCOC(=O)c1c(-c2ccc(O)c(OC)c2)c(C#N)c(=S)n(C2OC(COC(C)=O)C(OC(C)=O)C(OC(C)=O)C2OC(C)=O)c1-c1ccccc1` (centres undefined), the TGI [1] was > 100 µM, the TGI [2] was > 100 µM and the TGI [3] was > 100 µM. The TGI [4] was > 100 µM, the GI50 [5] was 22.4 µM and 63.3 µM and the TGI [5] was > 100 µM. For the same molecule, the TGI [6] was > 100 µM, the TGI [7] was > 100 µM and the TGI [8] was > 100 µM. The TGI [16] was > 100 µM, the TGI [12] was > 100 µM and the TGI [14] was > 100 µM. For the same molecule, the TGI [15] was > 100 µM.

In the case of `O=c1[nH]nc(Cc2ccccc2)n1/N=C/c1ccccc1Cl`, the TGI [1] is reported as > 100 µM, the TGI [2] is reported as > 100 µM and the TGI [3] is reported as > 100 µM. For the same molecule, the TGI [4] was > 100 µM, the TGI [5] was > 100 µM and the TGI [6] was > 100 µM. For the same molecule, the TGI [7] was > 100 µM, the TGI [8] was > 100 µM and the TGI [9] was > 100 µM. For the same molecule, the TGI [16] was 48.5 µM, the TGI [10] was > 100 µM and the TGI [11] was > 100 µM. The TGI [13] was > 100 µM, the TGI [14] was > 100 µM and the TGI [15] was > 100 µM.

With `C[C@H]1C[C@H](C)c2ccccc2N(C)C1=Nc1ccccc1` the TGI [1] was 64 µM, the TGI [2] was 49.7 µM and the TGI [3] was 46.3 µM. The TGI [4] was > 100 µM, the TGI [5] was > 100 µM and the TGI [6] was 68.7 µM. For the same molecule, the TGI [7] was > 100 µM, the TGI [8] was 78 µM and the TGI [9] was > 100 µM. The TGI [16] was 92.2 µM, the TGI [10] was > 100 µM and the TGI [11] was 44.2 µM. For the same molecule, the TGI [12] was > 100 µM, the TGI [14] was 58.3 µM and the TGI [15] was 48.2 µM.

`CCOC(=O)/C(C#N)=C1\c2c([nH]c(=S)[nH]c2=O)Oc2ccc3ccccc3c21` was tested, and the TGI [1] was > 100 µM, the TGI [2] was > 100 µM and the TGI [3] was > 100 µM. The TGI [4] was > 100 µM, the TGI [5] was > 100 µM and the TGI [6] was > 100 µM. For the same molecule, the TGI [7] was > 100 µM, the TGI [8] was > 100 µM and the TGI [9] was > 100 µM. The TGI [16] was > 100 µM, the TGI [11] was 41 µM and the TGI [12] was 3.81 µM. For the same molecule, the TGI [13] was > 100 µM, the TGI [14] was > 100 µM and the TGI [15] was > 100 µM.

In the case of `OC(C/C(=N\N1CCCCC1)c1cccs1)(C(F)(F)F)C(F)(F)F`, the TGI [1] is reported as > 10 µM, the TGI [2] is reported as > 10 µM and the TGI [3] is reported as > 10 µM. For the same molecule, the TGI [4] was > 10 µM, the TGI [5] was > 10 µM and the TGI [6] was > 10 µM. For the same molecule, the TGI [7] was > 10 µM, the TGI [9] was > 10 µM and the TGI [16] was > 10 µM. For the same molecule, the TGI [10] was > 10 µM, the TGI [11] was > 10 µM and the TGI [12] was > 10 µM. The TGI [13] was > 10 µM, the TGI [14] was > 10 µM and the TGI [15] was > 10 µM.

In the case of `CC(=O)OCC1OC(N2C(C)=C(C(C)=O)C(c3ccco3)C(C#N)=C2S)C(OC(C)=O)C(OC(C)=O)C1OC(C)=O` (centres undefined), the TGI [1] is reported as > 100 µM, the TGI [2] is reported as > 100 µM and the TGI [3] is reported as > 100 µM. For the same molecule, the TGI [4] was > 100 µM, the TGI [5] was > 100 µM and the TGI [6] was > 100 µM. The TGI [7] was > 100 µM, the TGI [8] was > 100 µM and the TGI [9] was > 100 µM. For the same molecule, the TGI [16] was > 100 µM, the TGI [10] was > 100 µM and the TGI [11] was > 100 µM. The TGI [12] was > 100 µM, the TGI [14] was > 100 µM and the TGI [15] was > 100 µM.

In the case of `Cc1nn(-c2ccccc2)c2[nH]c(=S)cnc12`, the TGI [1] is reported as > 100 µM, the TGI [3] is reported as > 100 µM and the TGI [4] is reported as > 100 µM. For the same molecule, the TGI [5] was > 100 µM, the TGI [6] was > 100 µM and the TGI [7] was > 100 µM. The TGI [8] was > 100 µM, the TGI [9] was > 100 µM and the TGI [16] was > 100 µM. The TGI [10] was > 100 µM, the TGI [11] was > 100 µM and the TGI [12] was > 100 µM. For the same molecule, the TGI [13] was > 100 µM, the TGI [14] was > 100 µM and the TGI [15] was > 100 µM.

In the case of `CCOC(=O)[C@@H]1ON2O[C@H](OC3CCCC3(c3ccccc3)c3ccccc3)C[C@H]3OC(=O)[C@@H]1C32` (some centres undefined), the TGI [1] is reported as > 100 µM, the TGI [2] is reported as > 100 µM and the TGI [3] is reported as > 100 µM. The TGI [4] was > 100 µM, the TGI [5] was 91.4 µM and the TGI [6] was > 100 µM. For the same molecule, the TGI [7] was > 100 µM, the TGI [8] was > 100 µM and the TGI [9] was > 100 µM. For the same molecule, the TGI [16] was 36.5 µM, the TGI [10] was > 100 µM and the TGI [13] was > 100 µM. The TGI [14] was 99.2 µM and the TGI [15] was > 100 µM.

With `[O-][n+]1onc(-c2ccccc2)c1CN1CCOCC1` the TGI [1] was > 100 µM, the TGI [2] was > 100 µM and the TGI [3] was > 100 µM. For the same molecule, the TGI [4] was > 100 µM, the TGI [5] was > 100 µM and the TGI [6] was > 100 µM. For the same molecule, the TGI [7] was > 100 µM, the TGI [8] was > 100 µM and the TGI [9] was > 100 µM. The TGI [16] was > 100 µM, the TGI [10] was > 100 µM and the TGI [11] was > 100 µM. The TGI [12] was > 100 µM, the TGI [13] was > 100 µM and the TGI [15] was > 100 µM.
